Reference: patent publication US6008046A, “Drug and pesticide screening” (priority 1993, dated 1999)
Counter-ions that a name gives are not always drawn. Like-named read-outs stand apart in the source and are kept apart here.

Columns and labels:
[1] = target: T1, mutant GABA receptor (Ala to Ser mutant Rdl) (Drosophila melanogaster, UniProt P25123, A301S/I283V); experiment: Two-electrode voltage clamp of Xenopus oocytes expressing Ala to Ser mutant GABA receptor; type: cell-based; conditions: for response of mutant channels to GABA and muscimol compared with wild-type channels: Ala to Ser mutant vs wild-type; for sensitivity of Ala>Ser mutant compared with wild-type: thirty oocytes with each type of RNA (FIGS. 10b-e); for Reduction in GABA response (mean (s.d.)): xenopus oocytes
T1 construct: expressed in transfected cells; host or cells: Xenopus oocytes injected with RNA derived from the Ala to Ser mutant of cDNA 14.1
Description: (§1) The cloning of cDNA's from the GABAA locus allows for functional expression of mRNA derived from this and other subunit cDNA templates in various cell types.
(§2) In the Xenopus oocyte expression system, oocytes removed from ovaries of adult Xenopus are arrested at the first meiotic prophase. Because each oocyte is fairly large and has a large nucleus, it is technically easy to inject foreign DNA into the oocyte nucleus. Typically, 20-40 nl is injected through a finely drawn glass capillary. The endogenous Xenopus RNA polymerases transcribe this injected exogenous DNA. Mertz and Gurdon, Proc. Natl. Acad. Sci. USA 74:1502 (1977). The exogenous DNA is assembled into chromatin, but there is no replication of injected duplex DNA in the oocyte. Gargilo and Worcel, J. Mol. Biol., 170:699 (1983); Ryoji and Worcel, Cell 37:21 (1984). Single-stranded DNA (e.g., DNA obtained by cloning in M13 vectors), is converted to duplex form within the oocyte nucleus. The Xenopus oocyte also efficiently translates mRNA injected into its cytoplasm.
(§3) Various studies have shown that this Xenopus expression system is feasible for expression of foreign DNA. Kreig and Melton, EMBO J 4:3464 (1985); Masu et al., Nature 329:836 (1987); Wilson et al., Cell 47:589 (1986); see also, Old and Primrose, Principles of Gene Manipulation, 4th ed. (Blackwell Scientific Publications, Oxford, 1989)(pp. 296-302).
(§4) In the system of the present invention, messenger RNA produced from cDNA template, (both messenger RNA and cDNA template are considered to be part of the present invention), is injected into Xenopus eggs which then express the protein. By patch clamp electrophysiology experiments, one can then determine whether the cell is expressing the protein (measured by electrical impulses) and whether this expression can be altered by the compound of interest.
(§5) Currents were recorded in 96 mM NaCl, 2 mM Kcl, 1.8 mM MgCl2, and 5 mM Hepes. Recordings were made 1-5 days after injection. […] Dieldrin was dissolved in DMSO (dimethylsulfoxide), then diluted to a final concentration of 0.1% DMSO. The single base pair substitution of GCG (alanine) to TCG (serine) was introduced into the sensitive cDNA 14.1 by subcloning in a restriction fragment from the insensitive cDNA. The region containing the mutation was then amplified by PCR from total embryonic RNA from Rdl^R-MD flies and subsequently digested with EcoRV and Acc1. This restriction fragment was then cloned into the sensitive cDNA 14.1 cut with the same enzymes to yield the Ala to Ser mutant construct.
(§6) In order to test the effect of the resistance-associated Ala to Ser mutation, this substitution was introduced into the sensitive cDNA (as discussed above). […] Pharmacological comparisons were made using thirty oocytes injected with each type of RNA.

[2] = target: normal GABA receptor (wild-type Rdl, cDNA 14.1) (Drosophila melanogaster, UniProt P25123, I283V); experiment: cell-based; conditions: for Reduction in GABA response (mean (s.d.)): xenopus oocytes
Description: as §1, §2, §3, §4, §5, §6

[3] = test system: mutant GABA receptor (Ala to Ser mutant Rdl); experiment: Two-electrode voltage clamp of Xenopus oocytes expressing Ala to Ser mutant GABA receptor; type: cell-based, Drosophila melanogaster
Description: as §1, §2, §3, §4, §5, §6

[4] = test system: D. melanogaster; experiment: Dieldrin contact bioassay, fly mortality in coated vials after 24 hours; type: in vivo; conditions: for mortality at 0.03 mg: Drosophila melanogaster, 24 h, 30 μg dieldrin
Description: More specifically, FIG. 2 depicts the crosses used to rescue cyclodiene insecticide susceptibility via P-element-mediated germline transformation. As depicted, embryos containing an endogenous source of transposase (Δ2,3) were injected with a cosmid carrying a susceptible copy of the gene and a copy of the mini-white eye color gene as a selectable marker. Successful G0 transformants with red eyes (w^+) were subsequently crossed into flies hemizygous for resistance and a deficiency uncovering the resistance gene Df(3L)29A6. These flies carrying the w^+ S insert (transferred DNA) are susceptible to a dose of 30 μg dieldrin, whereas their siblings without the insert are resistant to this dose.
In order to more precisely localize the gene within the 200 kb of DNA isolated from the 66F subregion, new chromosomal rearrangements were induced using γ irradiation and screened for those uncovering the resistance gene. Chromosomal rearrangements were generated by exposing male SS flies with multiply marked third chromosomes (rucuca strain) to 4,000 rads of radiation in a γ radiation (cesium) source, and then outcrossing these R/R (Rdl^R /Rdl^R) females. New rearrangements uncovering resistance were screened for by exposing their progeny at a dose of 30 μg dieldrin, at which only R/Df (Rdl^R /Df) flies will survive (all the expected RS progeny will die at this dose level except for any R/- flies wherein "-" is any new rearrangement uncovering the resistance gene), survivors were crossed to In(3LR)TM3/Sb and maintained as a balanced stock (Df/In(3LR)TM3).
Approximately 50,000 flies were screened. For screening, 20 ml glass scintillation vials were coated internally with 30 μg of dieldrin in acetone and rolled until dry. Twenty to thirty flies per vial were added and mortality was recorded after 24 hours at 25° C..
As both of the cytologically visible rearrangements giving two new recombinant bands on a Southern with probes from cosmid 6 have only one breakpoint within 66F, this cluster of breakpoints which disrupts the gene must therefore mark its location. In order to determine whether cosmid 6 contained a functional copy of the gene for cyclodiene resistance, P-element germline transformation with this cosmid was carried out. Following successful isolation of a w^+ transformant, linkage to the insert to the second chromosome was established after crossing male G0 progeny to a stock bearing markers on the second and third chromosomes (FIG. 2). […]
Entomol., 83:1733, (1990). […] These field-collected and isofemale strains were used in the initial identification of the resistance-associated mutation, but studies of linkage to other restriction-site markers in D. melanogaster were done with isochromsomal lines to ensure that only a single chromosome was being analyzed.

[5] = test system: D. melanogaster; conditions: 30 μg dieldrin, ffrench-Constant et al. 1990, cited from earlier work
[6] = test system: larval central nerve cord of Rdl^R-MD; conditions: dieldrin, 10 μM concentration; Bloomquist et al. 1991; cited from earlier work
[7] = test system: chloride ion channels; conditions: thiocyanate ions vs chloride; cited from earlier work
[8] = test system: cultured Rdl^R-MD neurons; experiment: Whole cell patch clamp of cultured Rdl^R-MD neurons; type: cell-based, Drosophila melanogaster; conditions: PTX
[9] = test system: PTX binding sites on the GABA receptor; conditions: cyclodiene-resistant vs susceptible strains; Matsumura et al. 1987; cited from earlier work
[10] = wild-type mRNA, voltage clamped at -60 mV
[11] = read-out: Reduction in GABA response (mean (s.d.))

Sequence of normal GABA receptor (wild-type Rdl, cDNA 14.1) (P25123 other isoform, or with tags, fused parts or gaps I283V): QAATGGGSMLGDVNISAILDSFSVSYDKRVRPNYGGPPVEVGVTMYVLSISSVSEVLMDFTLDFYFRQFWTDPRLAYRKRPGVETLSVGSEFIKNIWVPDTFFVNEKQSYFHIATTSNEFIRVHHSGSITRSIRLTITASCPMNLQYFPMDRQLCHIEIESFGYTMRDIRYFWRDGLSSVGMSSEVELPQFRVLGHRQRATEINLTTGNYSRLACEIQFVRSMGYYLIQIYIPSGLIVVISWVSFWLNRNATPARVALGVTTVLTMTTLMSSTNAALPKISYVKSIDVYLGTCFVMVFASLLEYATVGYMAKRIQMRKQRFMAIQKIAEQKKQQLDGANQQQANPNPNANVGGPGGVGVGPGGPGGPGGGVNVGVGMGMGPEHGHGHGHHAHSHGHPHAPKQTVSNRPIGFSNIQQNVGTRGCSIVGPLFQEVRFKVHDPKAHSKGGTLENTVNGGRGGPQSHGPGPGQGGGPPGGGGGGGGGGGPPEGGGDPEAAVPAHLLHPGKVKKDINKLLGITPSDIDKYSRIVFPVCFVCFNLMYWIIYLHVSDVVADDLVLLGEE
T1 sequence (P25123 other isoform, or with tags, fused parts or gaps I283V/A301S): as the sequence (P25123 other isoform, or with tags, fused parts or gaps I283V) above, with A257S counted along it

NCc1cc(=O)[nH]o1 [muscimol, muscimol hydrobromide]
response of mutant channels to GABA and muscimol compared with wild-type channels [1]: apparently identical to the wild-type channels

C[N+]1(C)CCc2cc3c(cc2[C@H]1[C@@H]1OC(=O)c2c1ccc1c2OCO1)OCO3 [bicuculline, (-)-bicuculline methiodide]
block of GABA-evoked currents by bicuculline ([2]; bicuculline 100 μM with 10 μM GABA (FIG. 10a)): not blocked

NCCCC(=O)O [GABA, γ-aminobutyric acid]
recovery of response to GABA during washing ([2]; after PTX or dieldrin, washed with saline 20 min, all experiments (wild-type and mutant)): at least 50%
reversal potential of GABA-evoked currents ([2]; wild-type mRNA): -20 to -25 mv
maximum current, lower end of range [2, 10]: 50 nA
maximum current, upper end of range [2, 10]: > 5 μA
response of mutant channels to GABA and muscimol compared with wild-type channels [1]: apparently identical to the wild-type channels

ClC1=C(Cl)[C@]2(Cl)[C@@H]3[C@@H]4C[C@@H]([C@H]5O[C@@H]45)[C@@H]3[C@@]1(Cl)C2(Cl)Cl [dieldrin]
solubility ([2]; dissolved in DMSO, diluted to final 0.1% DMSO, concentration above 10 μM not possible): limited solubility
inhibition at 10 µM [2, 11]: 78%
inhibition at 10 µM ([2]; read-out: block of the GABA response, 10 μM dieldrin, wild-type "sensitive" cDNA (FIG. 10c)): > 75%
Reduction in GABA response (mean (s.d.)) ([2]; 10 µM): 80 (6) %
block of the GABA response, in words ([1]; […] μM dieldrin, insensitive mutant cDNA (FIG. 10e)): little effect
sensitivity of expressed chloride ion channels carrying the Ala to Ser mutation ([1]; mutation of resistant D. melanogaster): insensitivity
inhibition at 10 µM [1, 11]: 23%
sensitivity of Ala>Ser mutant compared with wild-type [1]: consistently lower sensitivity
Reduction in GABA response (mean (s.d.)) ([1]; 10 µM): 12 (11) %
loss of sensitivity conferred by the mutation ([3]; dieldrin, from comparison of effects of lower doses): 50-100 fold
mortality at 0.03 mg ([4]; flies carrying the cosmid 6 insert (Rdl^R/Rdl^S), n=221): 93%
mortality at 0.03 mg ([4]; siblings without the insert (Rdl^R/Df(3L)29A6), n=214): 7%
susceptibility to 30 μg dieldrin, in words ([4]; flies carrying the w+ S insert): susceptible
susceptibility to 30 μg dieldrin, in words ([4]; siblings without the insert): resistant
survival of RR flies ([5]; RR flies): 85%
kill of RS and SS genotypes ([5]; RS and SS flies): kills all RS and SS genotypes
sensitivity of larval central nerve cord of Rdl^R-MD [6]: Insensitivity

N#CS [thiocyanate]
permeation through chloride ion channels relative to chloride [7]: seven

C=C(C)[C@@H]1[C@H]2OC(=O)[C@@H]1[C@]1(O)C[C@H]3O[C@]34C(=O)O[C@H]2[C@]14C [PTX, Picrotoxinin]
inhibition at 1 µM [2, 11]: 73%
inhibition at 10 µM [2, 11]: 96%
inhibition at 50 µM [2, 11]: 96%
inhibition at 1 µM ([2]; read-out: block of the GABA response, 1 μM PTX, wild-type "sensitive" cDNA (FIG. 10b)): > 70%
Reduction in GABA response (mean (s.d.)) ([2]; 1 µM): 78 (12) %
Reduction in GABA response (mean (s.d.)) ([2]; 10 µM): 90 (13) %
Reduction in GABA response (mean (s.d.)) ([2]; 50 µM): 97 (5) %
block of the GABA response, in words ([1]; 1 μM PTX, Ala to Ser mutant (FIG. 10d)): little effect
inhibition at 1 µM [1, 11]: 8%
inhibition at 10 µM [1, 11]: 61%
inhibition at 50 µM [1, 11]: 75%
inhibition at 1 µM ([1]; read-out: Reduction in GABA response (mean (s.d.)), Mutant, 1 μM PTX, oocytes with GABA EC50 […] μM, n = 6): 8%
sensitivity of Ala>Ser mutant compared with wild-type [1]: consistently lower sensitivity
Reduction in GABA response (mean (s.d.)) ([1]; 10 µM): 48 (6) %
Reduction in GABA response (mean (s.d.)) ([1]; 50 µM): 56 (6) %
reduction in sensitivity induced by the mutation ([3]; PTX, mutant vs wild-type oocytes): approximately 100 fold
reduction in sensitivity [8]: approximately 100 fold
affinity for PTX of resistant strains relative to susceptibles [9]: one tenth
